Each block holds one molecule with its values, some of them ahead of it.
How the values were obtained:
[1] = system: CCRF-CEM; assay: Cytotoxicity against human CEM cells after 72 hrs by MTT assay; type: functional, cell-based
[2] = system: K562; assay: Cytotoxicity against human K562 cells after 72 hrs by MTT assay; type: functional, cell-based; conditions: K562, 72 h
[3] = system: HT-29; assay: Cytotoxicity against human HT-29 cells after 72 hrs by MTT assay; type: functional, cell-based; conditions: HT-29, 72 h
[4] = system: HCT-116; assay: Cell cycle arrest in human HCT116 cells assessed as increase in accumulation at G2/M phase after 24 hrs by FACS flow cytometry; type: functional, cell-based
[5] = system: ZR-75-30; assay: Cytotoxicity against human ZR75-30 cells after 72 hrs by MTT assay; type: functional, cell-based; conditions: ZR-75-30, 72 h
[6] = target: Tubulin (Sus scrofa, UniProt P02554+P02550); assay: Inhibition of porcine brain tubulin assembly measured every 1 min for 60 mins by turbidimetric analysis
[7] = system: HCT-116; assay: Cell cycle arrest in human HCT116 cells assessed as decrease in accumulation at G1 phase after 24 hrs by FACS flow cytometry; type: functional, cell-based
[8] = system: HCT-116; assay: Cell cycle arrest in human HCT116 cells assessed as decrease in accumulation at S phase after 24 hrs by FACS flow cytometry; type: functional, cell-based
[9] = system: HCT-116; assay: Cell cycle arrest in human HCT116 cells assessed as accumulation at G2/M phase at 0.2 uM after 24 hrs by FACS flow cytometry (reference value: 13 %); type: functional
[10] = system: HCT-116; assay: Cell cycle arrest in human HCT116 cells assessed as accumulation at G2/M phase at 2 uM after 24 hrs by FACS flow cytometry; type: functional
[11] = system: Mus musculus; assay: Toxicity in nude BALB/c mouse xenografted with human HT-29 cells assessed as mortality at 100 mg/kg, ip qd after 21 days; type: organism-based; design: dose 100 mg/kg, route intraperitoneal; conditions: in vivo, 504 h
[12] = system: Mus musculus; assay: Toxicity in nude BALB/c mouse xenografted with human HT-29 cells assessed as mortality at 150 mg/kg, ip qd after 21 days; type: organism-based; design: dose 150 mg/kg, route intraperitoneal; conditions: in vivo, 504 h
[13] = system: Mus musculus; assay: Toxicity in nude BALB/c mouse xenografted with human HT-29 cells assessed as mortality at 300 mg/kg, ip qd after 21 days; type: organism-based; design: dose 300 mg/kg, route intraperitoneal; conditions: in vivo, 504 h
[14] = system: HT-29; assay: Antitumor activity against human HT-29 cells xenografted in nude BALB/c mouse assessed as decrease in tumor volume at 100 mg/kg, ip qd measured on day 21 relative to vehicle-treated control; type: functional; conditions: route intraperitoneal
[15] = system: HT-29; assay: Antitumor activity against human HT-29 cells xenografted in nude BALB/c mouse assessed as decrease in tumor volume at 150 mg/kg, ip qd measured on day 21 relative to vehicle-treated control; type: functional; conditions: route intraperitoneal
[16] = system: HT-29; assay: Antitumor activity against human HT-29 cells xenografted in nude BALB/c mouse assessed as decrease in tumor volume at 300 mg/kg, ip qd measured on day 21 relative to vehicle-treated control; type: functional; conditions: route intraperitoneal
[17] = system: Mus musculus; assay: Toxicity in nude BALB/c mouse xenografted with human HT-29 cells assessed as body weight change at 100 mg/kg, ip qd after 21 days (reference value: 2.7 g); type: organism-based; design: dose 100 mg/kg, route intraperitoneal; conditions: in vivo, 504 h
[18] = system: Mus musculus; assay: Toxicity in nude BALB/c mouse xenografted with human HT-29 cells assessed as body weight change at 150 mg/kg, ip qd after 21 days (reference value: 2.7 g); type: organism-based; design: dose 150 mg/kg, route intraperitoneal; conditions: in vivo, 504 h
[19] = system: Mus musculus; assay: Toxicity in nude BALB/c mouse xenografted with human HT-29 cells assessed as body weight change at 300 mg/kg, ip qd after 21 days (reference value: 2.7 g); type: organism-based; design: dose 300 mg/kg, route intraperitoneal; conditions: in vivo, 504 h
[20] = system: Mus musculus; assay: Toxicity in nude BALB/c mouse xenografted with human HT-29 cells assessed as effect on WBC count at 100 mg/kg, ip qd after 21 days (reference value: 25.38 +/- 0.22 x 10^3 mm'-3); type: organism-based; design: dose 100 mg/kg, route intraperitoneal; conditions: in vivo, 504 h
[21] = system: Mus musculus; assay: Toxicity in nude BALB/c mouse xenografted with human HT-29 cells assessed as effect on WBC count at 150 mg/kg, ip qd after 21 days (reference value: 25.38 +/- 0.22 x 10^3 mm'-3); type: organism-based; design: dose 150 mg/kg, route intraperitoneal; conditions: in vivo, 504 h
[22] = system: Mus musculus; assay: Toxicity in nude BALB/c mouse xenografted with human HT-29 cells assessed as effect on WBC count at 300 mg/kg, ip qd after 21 days (reference value: 25.38 +/- 0.22 x 10^3 mm'-3); type: organism-based; design: dose 300 mg/kg, route intraperitoneal; conditions: in vivo, 504 h
[23] = system: Mus musculus; assay: Toxicity in nude BALB/c mouse xenografted with human HT-29 cells assessed as effect on lymphocyte count at 100 mg/kg, ip qd after 21 days (reference value: 15.88 +/- 0.41 x 10^3 mm'-3); type: organism-based; design: dose 100 mg/kg, route intraperitoneal; conditions: in vivo, 504 h
[24] = system: Mus musculus; assay: Toxicity in nude BALB/c mouse xenografted with human HT-29 cells assessed as effect on lymphocyte count at 150 mg/kg, ip qd after 21 days (reference value: 15.88 +/- 0.41 x 10^3 mm'-3); type: organism-based; design: dose 150 mg/kg, route intraperitoneal; conditions: in vivo, 504 h
[25] = system: Mus musculus; assay: Toxicity in nude BALB/c mouse xenografted with human HT-29 cells assessed as effect on lymphocyte count at 300 mg/kg, ip qd after 21 days (reference value: 15.88 +/- 0.41 x 10^3 mm'-3); type: organism-based; design: dose 300 mg/kg, route intraperitoneal; conditions: in vivo, 504 h
[26] = system: Mus musculus; assay: Toxicity in nude BALB/c mouse xenografted with human HT-29 cells assessed as effect on platelet count at 100 mg/kg, ip qd after 21 days (reference value: 1509 +/- 34 x 10^3 mm'-3); type: organism-based; design: dose 100 mg/kg, route intraperitoneal; conditions: in vivo, 504 h
[27] = system: Mus musculus; assay: Toxicity in nude BALB/c mouse xenografted with human HT-29 cells assessed as effect on platelet count at 150 mg/kg, ip qd after 21 days (reference value: 1509 +/- 34 x 10^3 mm'-3); type: organism-based; design: dose 150 mg/kg, route intraperitoneal; conditions: in vivo, 504 h
[28] = system: Mus musculus; assay: Toxicity in nude BALB/c mouse xenografted with human HT-29 cells assessed as effect on platelet count at 300 mg/kg, ip qd after 21 days (reference value: 1509 +/- 34 x 10^3 mm'-3); type: organism-based; design: dose 300 mg/kg, route intraperitoneal; conditions: in vivo, 504 h
[29] = system: Mus musculus; assay: Toxicity in nude BALB/c mouse xenografted with human HT-29 cells assessed as effect on ALT level at 100 mg/kg, ip qd after 21 days (reference value: 28 +/- 0.4 IU/L); type: organism-based; design: dose 100 mg/kg, route intraperitoneal; conditions: in vivo, 504 h
[30] = system: Mus musculus; assay: Toxicity in nude BALB/c mouse xenografted with human HT-29 cells assessed as effect on ALT level at 150 mg/kg, ip qd after 21 days (reference value: 28 +/- 0.4 IU/L); type: organism-based; design: dose 150 mg/kg, route intraperitoneal; conditions: in vivo, 504 h
[31] = system: Mus musculus; assay: Toxicity in nude BALB/c mouse xenografted with human HT-29 cells assessed as effect on ALT level at 300 mg/kg, ip qd after 21 days (reference value: 28 +/- 0.4 IU/L); type: organism-based; design: dose 300 mg/kg, route intraperitoneal; conditions: in vivo, 504 h
[32] = system: Mus musculus; assay: Toxicity in nude BALB/c mouse xenografted with human HT-29 cells assessed as effect on ALP level at 100 mg/kg, ip qd after 21 days (reference value: 107.6 +/- 0.8 IU/L); type: organism-based; design: dose 100 mg/kg, route intraperitoneal; conditions: in vivo, 504 h
[33] = system: Mus musculus; assay: Toxicity in nude BALB/c mouse xenografted with human HT-29 cells assessed as effect on ALP level at 150 mg/kg, ip qd after 21 days (reference value: 107.6 +/- 0.8 IU/L); type: organism-based; design: dose 150 mg/kg, route intraperitoneal; conditions: in vivo, 504 h
[34] = system: Mus musculus; assay: Toxicity in nude BALB/c mouse xenografted with human HT-29 cells assessed as effect on ALP level at 300 mg/kg, ip qd after 21 days (reference value: 107.6 +/- 0.8 IU/L); type: organism-based; design: dose 300 mg/kg, route intraperitoneal; conditions: in vivo, 504 h
[35] = system: Mus musculus; assay: Toxicity in nude BALB/c mouse xenografted with human HT-29 cells assessed as change in kidney morphology at 100 to 300 mg/kg, ip qd after 21 days relative to vehicle-treated control; type: organism-based; design: dose 100-300 mg/kg, route intraperitoneal; conditions: in vivo, 504 h
[36] = system: Mus musculus; assay: Toxicity in nude BALB/c mouse xenografted with human HT-29 cells assessed as change in liver morphology at 100 to 300 mg/kg, ip qd after 21 days relative to vehicle-treated control; type: organism-based; design: dose 100-300 mg/kg, route intraperitoneal; conditions: in vivo, 504 h
[37] = system: Mus musculus; assay: Toxicity in nude BALB/c mouse xenografted with human HT-29 cells assessed as change in spleen morphology at 100 to 300 mg/kg, ip qd after 21 days relative to vehicle-treated control; type: organism-based; design: dose 100-300 mg/kg, route intraperitoneal; conditions: in vivo, 504 h
[38] = system: HT-29; assay: Antitumor activity against human HT-29 cells xenografted in ip dosed nude BALB/c mouse assessed as decrease in tumor volume administered as qd measured on day 21; type: functional, organism-based
[39] = system: Mus musculus; assay: Toxicity in ICR mouse assessed as mortality at 150 to 600 mg/kg, ip administered on day 1; type: organism-based; design: dose 150-600 mg/kg, route intraperitoneal; conditions: in vivo
[40] = system: Mus musculus; assay: Toxicity in ICR mouse assessed as body weight loss at 600 mg/kg, ip administered on day 1 measured for 10 days relative to vehicle-treated control; type: organism-based; design: dose 600 mg/kg, route intraperitoneal; conditions: in vivo, 240 h
[41] = system: HCT-116; assay: cells; conditions: Homo sapiens, HCT-116, 72 h
[42] = system: MDA-MB-435; assay: cells; conditions: Homo sapiens, MDA-MB-435, 72 h
Description: Cytotoxicity against human MDA-MB-435 cells after 72 hrs by MTT assay

IC50 [41]: > 10 µM
IC50 [42]: > 10 µM
Structure (SMILES): COc1ccc2c(c1)/C(=C\c1ccc(C(C)(C)C)cc1)C(=O)CC2
IC50 [1]: > 10 µM

IC50 [6]: 6.88 µM
IC50 [41]: 0.15 µM
IC50 [42]: 0.39 µM
Structure (SMILES): COc1cc(/C=C2/C(=O)CCc3cc(OC)ccc32)cc(OC)c1
IC50 [1]: 0.078 µM

IC50 [41]: 2.15 µM
IC50 [42]: 0.33 µM
Structure (SMILES): COc1ccc2c(c1)CCC(=O)/C2=C/c1ccc(Cl)cc1Cl
IC50 [1]: 1.2 µM

Second part, the molecule before the results:

Structure (SMILES): COc1ccc2c(c1)CCC(=O)/C2=C/c1cc(OC)c(OC)c(OC)c1
IC50 [1]: 0.001 µM
IC50 [2]: 0.001 µM
IC50 [3]: 0.01 µM
Activity [4]: Dose-dependent effect
IC50 [5]: 0.01 µM
IC50 [6]: 3.93 µM
Activity [7]: Dose-dependent effect
Activity [8]: Dose-dependent effect
Activity [9]: 17%
Activity [10]: 74%
Activity [11]: Non-toxic
Activity [12]: Non-toxic
Activity [13]: Non-toxic
T/C [14]: 52%
T/C [15]: 45%
T/C [16]: 34%
Activity [17]: 2.3 g
Activity [18]: 3 g
Activity [19]: 2.6 g
Activity [20]: 24.42 ×10³ /mm3
Activity [21]: 20.18 ×10³ /mm3
Activity [22]: 19.96 ×10³ /mm3
Activity [23]: 11.08 ×10³ /mm3
Activity [24]: 10.03 ×10³ /mm3
Activity [25]: 8.87 ×10³ /mm3
Activity [26]: 1440 ×10³ /mm3
Activity [27]: 1375 ×10³ /mm3
Activity [28]: 1240 ×10³ /mm3
Activity [29]: 24 IU/L
Activity [30]: 28 IU/L
Activity [31]: 26 IU/L
Activity [32]: 112 IU/L
Activity [33]: 116.3 IU/L
Activity [34]: 107.6 IU/L
Activity [35]: Non-toxic
Activity [36]: Non-toxic
Activity [37]: Non-toxic
Activity [38]: Dose-dependent effect
Activity [39]: Non-toxic
Activity [40]: Non-toxic
IC50 [41]: 0.1 µM
IC50 [42]: 0.001 µM

Structure (SMILES): COc1cccc2c1CCC(=O)/C2=C/c1ccc(Br)cc1
IC50 [1]: > 10 µM
IC50 [41]: 6.8 µM
IC50 [42]: 7.59 µM
